Data published in PubChem BioAssay AID651976 (The Scripps Research Institute Molecular Screening Center, 2013).
pIC50: −log10 of the molar value. Activity calls are given as the source filed them. No rule for the calls is given here.

Biological target: Nuclear receptor subfamily 5 group A member 2 (Homo sapiens) (UniProt O00482)
Experiment: LRH-1 (NR5A2) inverse agonist potency, dose response, cell-based, luminescence, late stage (AID 651976)
Conditions: cell-based LRH-1 luciferase reporter

Nuclear receptor subfamily 5 group A member 2 (Homo sapiens), sequence (O00482 whole entry, looked up): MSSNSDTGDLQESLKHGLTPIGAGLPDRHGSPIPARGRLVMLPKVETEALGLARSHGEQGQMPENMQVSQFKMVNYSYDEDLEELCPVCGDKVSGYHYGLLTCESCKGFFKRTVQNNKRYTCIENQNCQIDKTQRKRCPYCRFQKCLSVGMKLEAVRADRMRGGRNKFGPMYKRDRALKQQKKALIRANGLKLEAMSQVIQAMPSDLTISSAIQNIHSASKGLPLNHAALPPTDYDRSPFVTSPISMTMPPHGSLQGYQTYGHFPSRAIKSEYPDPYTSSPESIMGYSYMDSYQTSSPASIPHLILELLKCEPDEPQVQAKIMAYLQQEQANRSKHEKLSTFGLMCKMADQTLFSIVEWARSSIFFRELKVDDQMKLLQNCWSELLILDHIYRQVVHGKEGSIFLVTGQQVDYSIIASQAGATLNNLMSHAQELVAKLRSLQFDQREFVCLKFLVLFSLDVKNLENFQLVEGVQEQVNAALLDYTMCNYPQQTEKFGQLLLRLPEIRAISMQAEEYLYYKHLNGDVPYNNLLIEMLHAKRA

## COc1ccc(NC(=O)COC(=O)c2cc(S(=O)(=O)N3CCCC3)ccc2O)cc1
  IC50: > 35.9 µM (inactive)

## CCOc1ccc(NC(=O)CSc2nnc(C(C)C)n2CC)cc1
  IC50: > 12 µM (inactive)

## CCc1cc(=O)oc2c(C)c(OCC(=O)NCCN3CCOCC3)ccc12
  IC50: > 35.9 µM (inactive)

## COc1ccc(CCNC(=O)COC(=O)c2cc(Cl)nc(Cl)c2)cc1
  IC50: > 35.9 µM (inactive)

## O=C(COc1ccc2c3c(c(=O)oc2c1)CCCC3)NCc1ccccn1
  IC50: > 35.9 µM (inactive)

## COc1ccc(CCNC(=O)CSc2nn3c(=O)c(C)nnc3s2)cc1OC
  pIC50: 5.86

## COc1ccc(-n2c(N)c(C(=O)NCc3cccnc3)sc2=S)cc1
  IC50: > 35.9 µM (inactive)

## Cc1ccc2cccc(OCC(=O)NCCC3=CCCCC3)c2n1
  pIC50: 5.74

## O=C(CSc1nnc(CNC(=O)c2ccccc2F)o1)Nc1ccc2c(c1)OCCO2
  pIC50: 6.14

## Cc1cc(OCC(=O)Nc2nccs2)c2c(C)cc(=O)oc2c1
  pIC50: 5.90

## O=C1CCCN2N=C(SCC(=O)Nc3ccc(Br)cc3)SC2=N1
  IC50: > 35.9 µM (inactive)

## COC(=O)c1ccc(NC(=O)CSc2nc3ncccc3[nH]2)cc1
  IC50: > 35.9 µM (inactive)

## CCCN(CC(=O)Nc1ccc(C(C)=O)cc1)CC(=O)Nc1ccccc1C
  IC50: inactive

## COC(=O)c1ccc(NC(=O)CSc2nncn2-c2cccnc2)cc1
  IC50: > 35.9 µM (inactive)

## COc1ccc(NS(=O)(=O)c2ccc(OCC(=O)N3CCN(C)CC3)cc2)cc1Cl
  pIC50: 5.28

## O=C(OCC(=O)N1CCN(C(=O)COC(=O)c2ccc(O)cc2O)CC1)c1ccc(O)cc1O
  pIC50: 5.86

## N#CCSc1ccccc1NC(=O)CN1C(=O)C2CC=CCC2C1=O (stereo not drawn)
  IC50: inactive

## CCOc1ccc(NC(=O)COC(=O)CC2CCCCC2)cc1
  IC50: > 35.9 µM (inactive)

## COc1ccc(NC(=O)COC(=O)c2c(-c3ccccc3)noc2C)cc1
  pIC50: 6.17

## O=C(COC(=O)c1ccc(=O)n(Cc2ccccc2)n1)Nc1ccc2c(c1)OCCO2
  IC50: > 35.9 µM (inactive)

## O=C(Nc1ccccc1)c1oc2ccccc2c1NC(=O)C1CC1
  pIC50: 5.04

## Cc1cc(Br)ccc1NC(=O)CN1C(=O)CCC1=O
  pIC50: 5.97

## CCOc1ccc(NC(=O)CSc2nncc(=O)n2N)cc1
  IC50: > 12 µM (inactive)

## CCOc1ccc(NC(=O)CSc2nccn(-c3ccc4c(c3)OCCO4)c2=O)cc1
  pIC50: 6.17

## COc1ccccc1Oc1nnnn1-c1ccc(C(N)=O)cc1
  pIC50: 5.01

## Cc1cccc(NC(=O)COC(=O)CN2C(=O)c3ccccc3C2=O)c1C
  IC50: > 35.9 µM (inactive)

## O=C(COC(=O)c1ccc[n+]([O-])c1)Nc1ccc([N+](=O)[O-])cc1Cl
  pIC50: 5.14

## COC(=O)c1ccc(NC(=O)CN2CCN(c3ccc(Cl)cc3)CC2)cc1
  IC50: > 35.9 µM (inactive)

## COc1ccc(CC(NC(C)=O)C(=O)NC2CCN(c3nnnn3-c3ccccc3)CC2)cc1 (stereo not drawn)
  pIC50: 6.11

## CC(=O)c1ccc(OC(C)C(=O)OCC(=O)NCCc2ccccc2)cc1 (stereo not drawn)
  IC50: > 35.9 µM (inactive)

## CCOc1ccc(NC(=O)CSc2nc3[nH]ncc3c(=O)[nH]2)cc1
  pIC50: 5.95

## CCc1cc(=O)[nH]c(SCC(=O)Nc2ccc3c(c2)OCCO3)n1
  IC50: > 35.9 µM (inactive)

## Cc1sc(NC(=O)C(C)C)c(C(=O)Nc2ccccc2)c1C
  pIC50: 5.09

## CCCc1cc(=O)oc2cc(OCC(=O)NCCc3ccc(S(N)(=O)=O)cc3)ccc12
  IC50: > 35.9 µM (inactive)

## CC1SC(C)C(=O)N(CC(=O)Nc2ccc3c(c2)OCO3)C1=O (stereo not drawn)
  IC50: > 35.9 µM (inactive)

## CC(C)CC1(C)NC(=O)N(CC(=O)Nc2ccc3c(c2)OCCO3)C1=O (stereo not drawn)
  IC50: > 35.9 µM (inactive)

## CCn1c(SCC(=O)Nc2ccc(Cl)cc2)nnc1C1CC1
  IC50: > 35.9 µM (inactive)

## COC(=O)c1ccc(CNC(=O)COC(=O)c2cc(Cl)nc(Cl)c2)cc1
  pIC50: 5.52

## CCCc1cc(=O)oc2c(C)c(OCC(=O)NCCN3CCOCC3)ccc12
  IC50: > 35.9 µM (inactive)

## CCc1c(C)nc(SCC(=O)Nc2ccc3c(c2)OCCO3)[nH]c1=O
  pIC50: 5.12

## CC(=O)c1ccc(NC(=O)C(C)O/N=C(\N)c2ccccc2)cc1 (stereo not drawn)
  pIC50: 5.12

## Cc1ccc(NC(=O)COC(=O)c2cc(=O)c3ccccc3o2)c(Br)c1
  IC50: > 35.9 µM (inactive)

## Cc1nn(CC(=O)Nc2ccc3c(c2)OCCO3)c(C)c1[N+](=O)[O-]
  IC50: > 35.9 µM (inactive)

## Cc1ccc(NC(=O)COC(=O)C(NS(=O)(=O)c2ccc(Cl)cc2)C(C)O)c(Br)c1 (stereo not drawn)
  IC50: > 35.9 µM (inactive)

## NC(=O)C1CCN(C(=O)COc2ccc3c4c(c(=O)oc3c2)CCCC4)CC1
  IC50: > 12 µM (inactive)

## CCOc1ccc(OCCN2C(=O)NC(Cc3c[nH]c4ccccc34)C2=O)cc1 (stereo not drawn)
  IC50: > 35.9 µM (inactive)

## CC(=O)Nc1ccc(N=c2cc([N+](=O)[O-])cc(Cl)n2O)cc1
  pIC50: 6.03

## CCCc1nnc(SCC(=O)Nc2ccc(C(=O)OCC)cc2)o1
  IC50: > 35.9 µM (inactive)

## CCCc1cc(=O)oc2c(C)c(OCC(=O)NCCCn3ccnc3)ccc12
  IC50: > 35.9 µM (inactive)

## COc1ccc(CCNC(=O)COC(=O)c2cccn2C)cc1
  IC50: > 35.9 µM (inactive)

## COc1ccc(CCNC(=O)COC(=O)C23CC4CC(CC(C4)C2)C3)cc1
  pIC50: 5.83

## O=C(COC(=O)CCN1C(=O)C2CC=CCC2C1=O)NCCc1ccc(F)cc1 (stereo not drawn)
  IC50: > 35.9 µM (inactive)

## O=c1[nH]c(Nc2ccc3c(c2)OCCO3)nnc1Cc1ccccc1
  pIC50: 5.64

## O=C(NCC1CCCO1)c1ccc(NC(=O)c2cccc([N+](=O)[O-])c2)cc1 (stereo not drawn)
  pIC50: 6.41

## COC(=O)c1ccc(NC(=O)COc2cccc(-n3cnnn3)c2)cc1
  pIC50: 5.64

## Cc1cccc(NC(=O)COC(=O)Cc2cccs2)c1C
  IC50: > 35.9 µM (inactive)

## O=C(CSc1nnc(CNC(=O)c2c(F)cccc2F)o1)Nc1ccc2c(c1)OCCO2
  pIC50: 5.15

## COc1ccc(CCNC(=O)COC(=O)Cc2ccccc2[N+](=O)[O-])cc1
  IC50: > 35.9 µM (inactive)

## COc1ccc(C2(C)NC(=O)N(CC(=O)NCCC3=CCCCC3)C2=O)cc1OC (stereo not drawn)
  IC50: > 35.9 µM (inactive)

## Cc1cc(Br)ccc1NC(=O)CSc1nnc(CN2CCOCC2)n1C
  pIC50: 5.10

## CC(=O)Nc1ncc(Cc2cc(Cl)ccc2Cl)s1
  pIC50: 5.07

## O=C(CSc1nc(=O)n2cc(Cl)ccc2n1)Nc1ccc2c(c1)OCCO2
  IC50: > 35.9 µM (inactive)

## CCOc1ccc(OCCC(=O)OCC(=O)Nc2ccc3c(c2)OCCO3)cc1
  IC50: > 35.9 µM (inactive)

## O=C(COC(=O)c1ccc(Br)cc1)Nc1ccccc1Br
  pIC50: 5.39

## COCCn1c(C)cc(/C=C(\C#N)C(=O)OCC(=O)Nc2ccc(S(N)(=O)=O)cc2)c1C
  IC50: > 35.9 µM (inactive)

## COc1ccc(CCNC(=O)CSc2ccc(NC(C)=O)cc2)cc1OC
  pIC50: 5.26

## COc1ccc(NC(=O)CN2C(=O)NC3(CCCC3)C2=O)cc1
  IC50: > 35.9 µM (inactive)

## COc1ccc(NC(=O)CSc2sc3c(O)cc(=O)[nH]c3c2C#N)c(OC)c1
  IC50: inactive

## Cc1ccc(-c2csc(NC(=O)c3ccc([N+](=O)[O-])o3)n2)cc1
  IC50: > 35.9 µM (inactive)

## COCC(=O)NC1CCN(CC(=O)Nc2ccc(OC)cc2[N+](=O)[O-])CC1
  IC50: > 35.9 µM (inactive)

## O=C(COc1ccc2c3c(c(=O)oc2c1)CCC3)NCc1ccncc1
  IC50: > 35.9 µM (inactive)

## COc1ccc(NC(=O)CSc2nc(N)c(-c3ccccc3)c(=O)[nH]2)cc1
  pIC50: 5.78

## Cc1ccc(NC(=O)COC(=O)C(NS(=O)(=O)c2ccc(Cl)cc2)C(C)O)cc1C (stereo not drawn)
  pIC50: 5.78

## O=C(NCc1ccco1)c1nn(-c2ccccc2)c(=O)c2ccccc12
  pIC50: 5.36

## Cc1cc(=O)oc2c(C)c(OCC(=O)NC3CC(C)(C)NC(C)(C)C3)ccc12
  IC50: > 35.9 µM (inactive)

## Cc1ccc(NC(=O)CSc2nc3[nH]c(=O)cc(O)c3s2)c(Br)c1
  IC50: inactive

## O=C(CN1C(=O)CCC1=O)Nc1ccc(Br)cc1
  pIC50: 5.65

## Cc1ccc(NC(=O)CSc2sc3c(O)cc(=O)[nH]c3c2C#N)c(F)c1
  IC50: > 35.9 µM (inactive)
